From patent US20240091279A1, “COMBINATION THERAPY FOR INFLAMMATORY DISEASES” (University of lowa Research Foundation, priority 2022, published 2024)
Read-outs that look alike come from different tables or passages of the source.

Key:
[1] = test system: experimental autoimmune encephalomyelitis (EAE); details: earlier published studies, cited from earlier work
mouse model of MS = test: Mouse model of MS, Example I; type: in vivo, mice; details: versus diet lacking phytoestrogen
[2] = versus the original isoflavones; cited from earlier work

Molecule | EAE disease [1] | EAE disease ([1]; listed as equol) | disease severity (mouse model of MS) | estrogenic activity [2]
Parabacteroides distasonis | sufficient to ameliorate EAE |  |  | 
Oc1ccc([C@H]2COc3cc(O)ccc3C2)cc1 [S-equol] | sufficient to ameliorate EAE | protect | mimic some of the disease protective function | significantly higher estrogenic activity
